We go through 21 compounds from patent publication US7001907B2, “Peptide-containing α-ketoamide cysteine and serine protease inhibitors” (Cephaon, Inc., priority 1997, dated 2006).

Some results are limits rather than exact numbers.

In the experiment the target is T1, Recombinant human calpain I (Homo sapiens, UniProt P07384).
T1 construct: made in house
T1 sequence (P07384 1-714): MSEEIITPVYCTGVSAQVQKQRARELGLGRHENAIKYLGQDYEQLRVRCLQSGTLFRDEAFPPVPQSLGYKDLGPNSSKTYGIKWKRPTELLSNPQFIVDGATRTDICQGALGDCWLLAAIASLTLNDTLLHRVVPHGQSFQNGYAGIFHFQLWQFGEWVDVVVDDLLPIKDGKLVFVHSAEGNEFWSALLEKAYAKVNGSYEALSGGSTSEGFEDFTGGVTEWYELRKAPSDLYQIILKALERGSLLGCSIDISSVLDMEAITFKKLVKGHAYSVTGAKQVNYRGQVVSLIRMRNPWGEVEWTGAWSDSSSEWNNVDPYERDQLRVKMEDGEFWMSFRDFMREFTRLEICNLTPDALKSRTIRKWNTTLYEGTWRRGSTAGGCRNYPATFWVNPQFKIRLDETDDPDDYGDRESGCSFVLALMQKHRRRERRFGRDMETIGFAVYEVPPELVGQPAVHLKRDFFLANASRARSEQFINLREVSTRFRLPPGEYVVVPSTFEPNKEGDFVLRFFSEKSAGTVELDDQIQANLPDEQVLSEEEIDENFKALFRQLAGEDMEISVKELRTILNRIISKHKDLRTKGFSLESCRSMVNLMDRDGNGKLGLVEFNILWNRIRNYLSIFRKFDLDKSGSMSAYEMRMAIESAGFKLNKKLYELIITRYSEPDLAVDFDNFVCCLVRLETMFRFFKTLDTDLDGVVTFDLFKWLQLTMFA
T1 sequence (P04632 1-268 partner): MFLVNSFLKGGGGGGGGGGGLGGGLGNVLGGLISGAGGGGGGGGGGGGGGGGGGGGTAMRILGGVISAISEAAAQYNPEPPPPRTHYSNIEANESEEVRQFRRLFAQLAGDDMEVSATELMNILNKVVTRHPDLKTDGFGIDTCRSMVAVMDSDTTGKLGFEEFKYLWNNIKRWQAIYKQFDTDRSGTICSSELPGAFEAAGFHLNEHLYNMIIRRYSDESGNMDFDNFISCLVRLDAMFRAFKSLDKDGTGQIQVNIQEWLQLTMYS
Nature of the experiment: Inhibition of cysteine protease activity: calpain I, Succ-Leu-Tyr-MNA substrate hydrolysis. It is filed as biochemical. On the procedure:
To evaluate inhibitory activity, stock solutions (40 times concentrated) of each compound to be tested were prepared in 100% anhydrous DMSO and 5 μl of each inhibitor preparation were aliquoted into each of three wells of a 96-well plate. Recombinant human calpain I, prepared by the method of Meyer et al. (Biochem. J. 1996, 314: 511–519; incorporated herein by reference in its entirety), was diluted into assay buffer (i.e., 50 mM Tris, 50 mM NaCl, 1 mM EDTA, 1 mM EGTA, and 5 mM β-mercaptoethanol, pH 7.5, including 0.2 mM Succ-Leu-Tyr-MNA), and 175 μl was aliquoted into the same wells containing the independent inhibitor stocks as well as to positive control wells containing 5 μl DMSO, but no compound. To start the reaction, 20 μl of 50 mM CaCl2 in assay buffer was added to all wells of the plate, excepting three, which were used as background signal baseline controls. Substrate hydrolysis was monitored every 5 minutes for a total of 30 minutes. Substrate hydrolysis in the absence of inhibitor was linear for up to 15 minutes.
Inhibition of calpain I activity was calculated as the percent decrease in the rate of substrate hydrolysis in the presence of inhibitor relative to the rate in its absence. Comparison between the inhibited and control rates was made within the linear range for substrate hydrolysis. The IC50s of inhibitors (concentration yielding 50% inhibition) were determined from the percent decrease in rates of substrate hydrolysis in the presence of five to seven different concentrations of the test compound. The results were plotted as percent inhibition versus log inhibitor concentration, and the IC50 was calculated by fitting the data to the four-parameter logistic equation shown below using the program GraphPad Prism (GraphPad Software, Inc., San Diego, Calif.). y=d+[(a−d)/(1+(x/c)^b)]
The parameters a, b, c, and d are defined as follows: a is % inhibition in the absence of inhibitor, b is the slope, c is the IC50, and d is the % inhibition at an infinite concentration of inhibitor.

The mark [1] stands for this setting: Table 5, achiral P2 mimetic α-ketoamides.

On to `CS(=O)(=O)N[C@H](COCc1ccccc1)C(=O)N[C@@H](Cc1ccccc1)C(=O)C(=O)NCCNS(=O)(=O)c1ccc(S(=O)(=O)c2ccccc2)s1` [Compound 37], for which, for the setting “Table 2, linear α-ketoamides”, the IC50 amounted to 18 nM.
`CS(=O)(=O)N[C@H](COCc1ccccc1)C(=O)N[C@@H](Cc1ccccc1)C(=O)C(=O)NCCCS(=O)(=O)Nc1ccc(C(F)(F)F)cc1` [Compound 63]: the IC50 (Table 4, α-ketoamides) came to 23 nM.
For the compound `CS(=O)(=O)NC(COCc1ccccc1)C(=O)NC(Cc1ccccc1)C(=O)C(=O)NCCNS(=O)(=O)c1ccc(-c2cccc(F)c2)s1` (mixture of isomers) [Compound 72], the IC50 (Table 4, α-ketoamides) stood at 18 nM.
With `CS(=O)(=O)N[C@H](COCc1ccccc1)C(=O)N[C@@H](Cc1ccccc1)C(=O)C(=O)NCCNS(=O)(=O)c1ccc(-c2cccc(CN3CCOCC3)c2)s1` [Compound 56], where the note is “Table 4, α-ketoamides”, the IC50 came to 18 nM.
Take `CS(=O)(=O)N[C@H](COCc1ccccc1)C(=O)N[C@@H](Cc1ccccc1)C(=O)C(=O)NCCNS(=O)(=O)c1ccc(-c2cccc(CN3CCCC3)c2)s1` [Compound 103]: the IC50 (Table 4, α-ketoamides) turned out to be 24 nM.
On to `CS(=O)(=O)NC(COCc1ccccc1)C(=O)NC(Cc1ccccc1)C(=O)C(=O)NCCNS(=O)(=O)c1ccc(-c2ccccc2)s1` (mixture of isomers) [Compound 42], for which, where the note is “Table 2, linear α-ketoamides”, the IC50 is 14 nM.
For the compound `O=C(NCCNS(=O)(=O)c1ccc(-c2ccccn2)s1)C(=O)[C@H](Cc1ccccc1)NC(=O)c1ccc2c(c1)OCO2` [Compound 123], under setting [1], the half-inhibitory concentration (IC50) is above 1000 nM.
In the case of `CS(=O)(=O)NC(C(=O)NC(Cc1ccccc1)C(=O)C(=O)NCCNS(=O)(=O)c1ccccc1)c1ccccc1` (mixture of isomers) [Compound 69], the IC50 (Table 4, α-ketoamides) came to 80 nM.
In the case of `CS(=O)(=O)N[C@@H](COCc1ccccc1)C(=O)N[C@@H](Cc1ccccc1)C(=O)C(=O)NCCNS(=O)(=O)c1ccccc1` [Compound 116], the IC50 (Table 4, α-ketoamides) was 100 nM.
For `CCc1cccc(CC)c1C(=O)N[C@@H](Cc1ccccc1)C(=O)C(=O)NCCNS(=O)(=O)c1ccc(-c2ccon2)s1` [Compound 137], the IC50 under setting [1] was determined as 145 nM.
For `N#Cc1cccc(-c2ccc(S(=O)(=O)NCCNC(=O)C(=O)[C@H](Cc3ccccc3)NC(=O)CCC3CCCC3)s2)c1` [Compound 151], under setting [1], the IC50 turned out to be 420 nM.
For the compound `CS(=O)(=O)NC(C(=O)NC(Cc1ccccc1)C(=O)C(=O)NCCNS(=O)(=O)c1ccc(-c2ccccn2)s1)c1ccccc1` (mixture of isomers) [Compound 68], the IC50 (Table 4, α-ketoamides) was 21 nM.
`CC(C)CCC(=O)N[C@@H](Cc1ccccc1)C(=O)C(=O)NCCNS(=O)(=O)c1ccc(-c2ccccn2)s1` [Compound 145]: the IC50 under setting [1] turned out to be 29 nM.
`CS(=O)(=O)N[C@H](COCc1ccccc1)C(=O)N[C@@H](Cc1ccccc1)C(=O)C(=O)NCCNS(=O)(=O)c1ccc(-c2ccc(CN3CCOCC3)cc2)s1` [Compound 94]: under “Table 4, α-ketoamides”, the IC50 came out at 22 nM.
As for `CS(=O)(=O)NC(COCc1ccccc1)C(=O)NC(Cc1ccccc1)C(=O)C(=O)NC1CCN(S(=O)(=O)c2ccc(-c3ccccn3)s2)CC1` (mixture of isomers) [Compound 107], the IC50 (Table 4, α-ketoamides) is 23 nM.
As to `CN(C)Cc1ccc(S(=O)(=O)NCCNC(=O)C(=O)[C@H](Cc2ccccc2)NC(=O)[C@@H](COCc2ccccc2)NS(C)(=O)=O)cc1` [Compound 45], under “Table 2, linear α-ketoamides”, the IC50 stood at 64 nM.
As to `CS(=O)(=O)N[C@H](COCc1ccccc1)C(=O)N[C@@H](Cc1ccccc1)C(=O)C(=O)NCCNS(=O)(=O)c1cc2ccccc2s1` [Compound 87], the IC50 (Table 4, α-ketoamides) is 23 nM.
`CS(=O)(=O)N[C@H](COCc1ccccc1)C(=O)N[C@@H](Cc1ccccc1)C(=O)C(=O)NCCNS(=O)(=O)c1ccc(-c2cccc(C#N)c2)s1` [Compound 104]: the IC50 (Table 4, α-ketoamides) is 10 nM.
The same measure, in the same setting: in the case of `CS(=O)(=O)N[C@H](Cc1ccccc1)C(=O)N[C@@H](Cc1ccccc1)C(=O)C(=O)NCCNS(=O)(=O)c1ccc(-c2ccccn2)s1` [Compound 71] it was 18 nM; in that of `CS(=O)(=O)N[C@H](COCc1ccccc1)C(=O)N[C@@H](Cc1ccccc1)C(=O)C(=O)NCCNS(=O)(=O)c1ccc(-c2ccccc2C=O)s1` [Compound 98], 24 nM.
As for `CS(=O)(=O)N[C@H](COCc1ccccc1)C(=O)N[C@@H](Cc1ccccc1)C(=O)C(=O)NC1CCC(=O)NC1` (stereo partly drawn) [Compound 64], the “Percent inhibition @ 0.1 μM (Calpain)” value (Table 4, 0.1 μM compound, value in brackets marked *) is on record as “(33)* Percent”.

By IC50 is commonly meant the concentration at which inhibition is half-maximal.
